Test results published in US6911455B2, “Methods for preparing pharmaceutical formulations” (SmithKline Beecham Corporation, priority 1999, dated 2005).
Where “and” joins values, the source holds several entries; their conditions need not be identical. Equal values may be shown once.

Columns and labels:
[1] = Surface tension analysis (DuNouy ring method); type: physicochemical
From the text: Aggregation of the histamine releaser in the reference solution and the comparative solution(s) can be measured by measuring the surface tension of each of the reference solution and the comparative solution(s) using the DuNouy ring method, as described in PHYSICAL PHARMACY: PHYSICAL CHEMICAL PRINCIPLES IN THE PHARMACEUTICAL SCIENCES, Editors: Alfred Martin, James Swarbrick, Arthur Cammarata, Third Edition, Lea Et Febiger, Philadelphia, 1983. Surface tension may provide a measure of the critical micelle concentration of the histamine releaser in solution and for this reason is an indicator of aggregation of the histamine releaser in the solution. […]
The surface tension properties of the histamine liberating agent can be evaluated using the DuNouy ring method. […]
The force required to detach the ring in this manner is provided by a torsion wire and is recorded in dynes on a calibrated dial. […]
The tensiometer is calibrated with filtered water and the surface tension of a 50 mg/mL solution of Compound 1 in water is evaluated at room temperature.
The surface tension of each solution is evaluated at room temperature and the results are recorded in a curve of surface tension (y-axis) versus concentration of drug (x-axis).

[2] = Proton NMR relaxation rates (T1, T2) as measure of aggregation; type: physicochemical; settings: for T1 / T2: D2O saline (150 mM NaCl)
From the text: There are two types of NMR relaxation, spin-lattice and spin-spin relaxation, referred to as T1 and T2 values, respectively. T1 and T2 are rate constants which measure the relaxation of NMR magnetization back to equilibrium (hereinafter collectively referred to as “NMR relaxation rates”). For small molecules in what is called the extreme narrowing limit, both T1 and T2 increase in inverse proportion to the rotational tumbling rate tc, which, in turn, is directly proportional to the average size of the aggregate. Thus, for small molecules, increases in T1 and/or T2 rates with the addition of excipient to the solution containing the histamine releaser, in the absence of significant changes in the viscosity of the solution, indicates a decrease in aggregation.
Compound 1 and excipient (in the various amounts noted below) are dissolved in 200 μL of D2O with 0.15 M NaCl adjusted to pD 3.0 with NaOD and/or DCl for compound stability reasons. Deuterated saline solution is used in the reference solution because critical compound peaks (or signals) overlap when deuterated water is employed. Samples in a titration series are prepared by serial dilutions. All NMR spectra are recorded at 30° C. on a Varian Unity Plus 500 MHz spectrometer. Spectra are referenced to D2O at 4.65 ppm. All spectra are processed using Varian VNMR® software v6.1a. T1 and T2 relaxation rates are measured using the standard inversion-recovery and Carr-Purcell-Meiboom-Gill (CPMG) experiments respectively, both of which are provided with the Varian software. CPMG experiments are described in M. Bulsing, et al., J. Chem. Soc. Chem. Commun. 1201-3 (1981); R. Freeman et al., IN DYNAMIC NMR SPECTROSCOPY, eds. L. Jackman and F. Cotton (1975) pp. 131-162, Academic Press, London and New York; and D. Rabenstein, et al., J. Magn. Reson. 64:541-546 (1985).
A series of solutions with increasing concentrations of Compound 1 in D2O saline, pD 3.0 are prepared and the NMR relaxation rate constants measured. Both T1S and T2S are measured because the drug, with a molecular weight of 1064.51, could lie outside the extreme motional narrowing limit for NMR, in which case, T1S would be expected to decrease and T2S would be expected to increase with a decrease in aggregation. See, K. Wüthrich, NMR OF PROTEINS AND NUCLEIC ACIDS, (1986) John Wiley Sons, New York.
A series of solutions containing 80 mM Compound 1 with increasing concentrations of d4-citrate in D2O saline, pD 3.0, are prepared, and the NMR relaxation rates are measured. The data obtained is summarized in Table 2 and reported graphically in FIG. 2.
A series of solutions containing 80 mM Compound 1 and varying concentrations of CaCl2 and d4-citrate in D2O saline, pD 3.0, are prepared, and the NMR relaxation rates are measured.

[3] = 80 mM Compound 1, d4-citrate 0.78 mM, pD 3
[4] = 80 mM Compound 1, d4-citrate 1.56 mM, pD 3
[5] = 80 mM Compound 1, d4-citrate 3.13 mM, pD 3
[6] = 80 mM Compound 1, d4-citrate 6.25 mM, pD 3
[7] = 80 mM Compound 1, d4-citrate 12.5 mM, pD 3
[8] = 80 mM Compound 1, d4-citrate 25 mM, pD 3
[9] = 80 mM Compound 1, d4-citrate 50 mM, pD 3
[10] = 80 mM Compound 1, d4-citrate 100 mM, pD 3
[11] = vinyl proton, 20 mM Compound 1, pD 3, 30° C.
[12] = vinyl proton, 40 mM Compound 1, pD 3, 30° C.
[13] = vinyl proton, 80 mM Compound 1, no excipient (reference solution), pD 3, 30° C.
[14] = vinyl proton, 160 mM Compound 1, pD 3, 30° C.

**Q.** What does the source list for `COc1cc2c(cc1OC)[C@H](c1cc(OC)c(OC)c(OC)c1)[N@@+](C)(CCCOC(=O)/C=C(\Cl)C(=O)OCCC[N@+]1(C)CCc3cc(OC)c(OC)cc3[C@H]1Cc1cc(OC)c(OC)c(OC)c1)CC2.[Cl-].[Cl-]` [Compound 1, (Z)-2-chloro-1-{3-{(1R,2S)-6,7-dimethoxy-2-methyl-1-[(3,4,5-trimethoxyphenyl)methyl]-1,2,3,4-tetrahydro-2-isoquinolinio}propyl}-4-{3-[(1S,2R)-6,7-dimethoxy-2-methyl-1-(3,4,5-trimethoxyphenyl)-1,2,3,4-tetrahydro-2-isoquinolinio]propyl}-2-butenedioate dichloride]?
**A.** surface tension versus concentration ([1]; 1-50 mg/mL in water, room temperature, FIG. 1): concentration dependent surface tension lowering; critical micelle concentration ([1]; in water): about 14 mM; slowing of relaxation rates compared to the reference solution ([2]; 80 mM Compound 1, 50 mM d4-citrate, D2O saline, pD 3): at least 25%; change in the T1 value (slowing of the relaxation rate) compared to the reference solution ([2]; 80 mM Compound 1, CaCl2 + d4-citrate, all but the two lowest concentrations of CaCl2 of Table 3): greater than 25%; d4-citrate concentration giving maximal effect on decreasing aggregation ([2]; 80 mM Compound 1, D2O saline, pD 3): 50 mM; T1 ([2]; 80 mM Compound 1, d4-citrate 0.78 mM + CaCl2 100 mM, pD 3): 2.78 s; T1 [2, 3]: 1.53 s; T2 [2, 3]: 0.57 s; T1 [2, 4]: 1.65 s; T2 [2, 4]: 0.59 s; T1 [2, 5]: 1.69 s; T2 [2, 5]: 0.67 s; T1 ([2]; 80 mM Compound 1, d4-citrate 5 mM + CaCl2 3.13 mM, pD 3): 1.45 s; T1 ([2]; 80 mM Compound 1, d4-citrate 5 mM + CaCl2 6.25 mM, pD 3): 1.47 s; T1 ([2]; 80 mM Compound 1, d4-citrate 5 mM + CaCl2 12.5 mM, pD 3): 1.51 s; T1 ([2]; 80 mM Compound 1, d4-citrate 5 mM + CaCl2 25 mM, pD 3): 1.89 s; T1 ([2]; 80 mM Compound 1, d4-citrate 5 mM + CaCl2 50 mM, pD 3): 1.94 s; T1 ([2]; 80 mM Compound 1, d4-citrate 5 mM + CaCl2 100 mM, pD 3): 2.14 s; T1 [2, 6]: 1.24 s; T2 [2, 6]: 0.69 s; T1 [2, 7]: 2.09 s; T2 [2, 7]: 1.01 s; T1 [2, 8]: 2.03 s; T2 [2, 8]: 0.87 s; T1 ([2]; 80 mM Compound 1, d4-citrate 50 mM + CaCl2 100 mM, pD 3): 2.26 s; T1 [2, 9]: 2.13 s; T2 [2, 9]: 1.31 s; T1 [2, 10]: 1.96 s; T2 [2, 10]: 0.85 s; critical micelle concentration ([2]; in saline (D2O saline, pD 3)): 40 to 80 mM; T1 ([2]; vinyl proton, 10 mM Compound 1, pD 3, 30° C.): 2.05 s; T1 [2, 11]: 2.30 s; T2 [2, 11]: 2.04 s; T1 [2, 12]: 2.49 s; T2 [2, 12]: 1.96 s; T1 [2, 13]: 1.20 s and 1.2 s; T2 [2, 13]: 0.38 s; T1 [2, 14]: 0.83 s; T2 [2, 14]: 0.13 s
